Series [1] has as its system TNF-α Production In THP 1 Cells. The series is described as follows: Inhibition of LPS-induced TNF-α production in THP-1 cells, in vitro assay (ELISA). In kind it is cell-based. To be noted: Homo sapiens, LPS 0.5 μg/ml, 2 h, TNF-α by ELISA, read-out: IC50, μM (inhibition of TNF-α release). Here is the method:
The ability of the compounds of this invention to inhibit the TNF-α release was determined using a minor modification of the methods described in described in Blifeld, C. et al. Transplantation, Vol. 51(2), 498-503, (1991).
THP-1 cells were suspended in culture medium [RPMI (Gibco-BRL, Gailthersburg, Md.) containing 15% fetal bovine serum, 0.02 mM 2-mercaptoethanol], at a concentration of 2.5×10^6 cells/ml and then plated in 96 well plate (0.2 ml aliquots in each well). Test compounds were dissolved in DMSO and then diluted with the culture medium such that the final DMSO concentration was […]. 20 μl aliquots of test solution or only medium with DMSO (control) were added to each well. The cells were incubated for 30 min., at 37° C. LPS (Sigma, St. Louis, Mo.) was added to the wells at a final concentration of 0.5 μg/ml, and cells were incubated for an additional 2 h. At the end of the incubation period, culture supernatants were collected and the amount of TNF-α present was determined using an ELISA assay as described below.
The amount of human TNF-α present was determined by a specific trapping ELISA assay using two anti-TNF-α antibodies (2TNF-H22 and 2TNF-H34) described in Reimund, J. M., et al. GUT. Vol. 39(5), 684-689 (1996).
Polystyrene 96-well plates were coated with 50 μl per well of antibody 2TNF-H22 in PBS (10 μg/ml) and incubated in a humidified chamber at 4° C. overnight. The plates were washed with PBS and then blocked with 5% nonfat-dry milk in PBS for 1 hour at room temperature and washed with 0.1% BSA (bovine serum albumin) in PBS.
TNF standards were prepared from a stock solution of human recombinant TNF-α (R&D Systems, Minneapolis, Minn.). The concentration of the standards in the assay began at 10 ng/ml followed by 6 half log serial dilution's.
25 μl aliquots of the above culture supernatants or TNF standards or only medium (control) were mixed with 25 μl aliquots of biotinylated monoclonal antibody 2TNF-H34 (2 μg/ml in PBS containing 0.1% BSA) and then added to each well. The samples were incubated for 2 h at room temperature with gentle shaking and then washed 3 times with 0.1% BSA in PBS. 50 μl of peroxidase-streptavidin (Zymed, S. San Francisco, Calif.) solution containing 0.416 μg/ml of peroxidase-streptavidin and 0.1% BSA in PBS was added to each well. The samples were incubated for an additional 1 h at room temperature and then washed 4 times with 0.1% BSA in PBS. 50 μl of O-phenylenediamine solution (1 μg/ml O-phenylene-diamine and 0.03% hydrogen peroxide in 0.2M citrate buffer pH 4.5) was added to each well and the samples were incubated in the dark for 30 min., at room temperature. Optical density of the sample and the reference were read at 450 nm and 650 nm, respectively. TNF-α levels were determined from a graph relating the optical density at 450 nm to the concentration used.
The IC50 value was defined as the concentration of the test compound corresponding to half-maximal reduction in 450 nm absorbance. Compounds of the invention were active in this assay. The activity of selected compounds is shown below.
For orientation: ELISA stands for enzyme-linked immunosorbent assay.

In the next series the target is T1, p38 MAP kinase (Homo sapiens, UniProt Q16539).
T1 construct: made in house; host or cells: E. coli (co-expressed with SEK-1 and MEKK to obtain the phosphorylated form)
The series is described as follows: Inhibition of p-38 (MAP) kinase, in vitro assay (transfer of γ-33P from ATP to Myelin Basic Protein). The series is classed as biochemical. The conditions noted are these: phosphorylated recombinant p38 MAP kinase, MBP substrate, γ-33P-ATP, 30° C.; read-out: IC50, μM (p-38 inhibitory activity). Here is the method: The p-38 MAP kinase inhibitory activity of compounds of this invention in vitro was determined by measuring the transfer of the γ-phosphate from γ-^33P-ATP by p-38 kinase to Myelin Basic Protein (MBP), using the a minor modification of the method described in Ahn, N. G.; et al. J. Biol. Chem. Vol. 266(7), 4220-4227, (1991).
The phosphorylated form of the recombinant p38 MAP kinase was expressed with SEK-1 and MEKK in E. Coli and then purified by affinity chromatography using a Nickel column.
The phosphorylated p38 MAP kinase was diluted in kinase buffer (20 mM 3-(N-morpholino)propanesulfonic acid, pH 7.2, 25 mM β-glycerol phosphate, 5 mM ethylene glycol-bis(beta-aminoethyl ether)-N,N,N′,N′-tetraacetic acid, 1 mM sodium vanadate, 1 mM dithiothreitol, 40 mM magnesium chloride). Test compound dissolved in DMSO or only DMSO (control) was added and the samples were incubated for 10 min at 30° C. The kinase reaction was initiated by the addition of a substrate cocktail containing MBP and γ-^33P-ATP. After incubating for an additional 20 min at 30° C., the reaction was terminated by adding 0.75% phosphoric acid. The phosphorylated MBP was then separated from the residual γ-^33P-ATP using a phosphocellulose membrane (Millipore, Bedford, Mass.) and quantitated using a scintillation counter (Packard, Meriden, Conn.).
Compounds of the invention were active in this assay.

For the next series, the system named is TNF-α Production In Rats. The series is described as follows: Inhibition of LPS-induced TNF-α production in rats, in vivo assay. The arrangement: species or system rat. To be noted: dosed orally at 30 mg, LPS 50 μg/kg intraperitoneally after 30 min, serum TNF-α 1.5 h later. The procedure:
The ability of the compounds of this invention to inhibit the TNF-α release, in vivo, was determined using a minor modification of the methods described in described in Zanetti, G.; Heumann, D., et. al. “Cytokine production after intravenous or peritoneal Gram-negative bacterial challenge in mice,” J. Immunol., 148, 1890, (1992) and Sekut, L., Menius, J. A., et. al., “Evaluation of the significance of elevated levels of systemic and localized tumor necrosis factor in different animal models of inflammation,” J. Lab. Clin. Med., 124, 813, (1994).
Female Sprague-Dawley rats weighing 110-140 grams (Charles River, Hollister, Calif.) were acclimated for one week. Groups containing 8 […] each were dosed orally either with the test compounds dissolved in an aqueous vehicle containing 0.9% sodium chloride, 0.5% sodium carboxymethyl-cellulose, 0.4% polysorbate 80, 0.9% benzyl alcohol (CMC vehicle) or only vehicle (control group). After 30 min., the mice were injected intraperitoneally with 50 μg/kg of LPS (Sigma, St. Louis, Mo.). After 1.5 h, the mice were sacrificed by CO2 inhalation and blood was harvested by cardiocentesis. Blood was clarified by centrifugation at 15,600×g for 5 min., and sera were transferred to clean tubes and frozen at −20° C. until analyzed for TNF-α by ELISA assay (Biosource International, Camarillo, Calif.) following the manufacturer's protocol. […]

We go through 11 compounds from patent publication US6444696B1, “Pyrazole derivatives P38 MAP kinase inhibitors” (Syntex (U.S.A.) LLC, priority 1998, dated 2002).

T1 sequence (Q16539 whole entry): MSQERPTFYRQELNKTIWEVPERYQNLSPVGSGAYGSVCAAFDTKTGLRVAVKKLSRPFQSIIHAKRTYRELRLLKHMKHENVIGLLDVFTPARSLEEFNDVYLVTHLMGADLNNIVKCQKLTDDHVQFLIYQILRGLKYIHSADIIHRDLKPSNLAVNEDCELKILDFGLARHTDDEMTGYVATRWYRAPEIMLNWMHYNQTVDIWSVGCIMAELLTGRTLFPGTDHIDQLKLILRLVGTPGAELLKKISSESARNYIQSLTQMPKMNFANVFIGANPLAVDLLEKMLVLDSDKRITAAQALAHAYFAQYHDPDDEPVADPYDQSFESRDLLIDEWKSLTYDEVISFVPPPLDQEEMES

For `N#CCCCOc1cccc(C(=O)c2cnn(-c3ccc(F)cc3)c2N)c1` [compound 27], the IC50 (commonly the concentration needed to halve the response being measured) in series [1] was determined as 0.83 µM; at p38 MAP kinase it was 2.72 µM.
Turning to `Nc1c(C(=O)c2cccc(C=CS(N)(=O)=O)c2)cnn1-c1ccc(F)cc1` [compound 10, 5-amino-4-[3-(2-aminosulfonylethenyl)benzoyl]-1-(4-fluorophenyl)pyrazole], in series [1], the IC50 was 1.62 µM.
`Nc1c(C(=O)c2ccc(C=CCN3CCOCC3)cc2)cnn1-c1ccc(F)cc1` [compound 2]: the melting point (usually the temperature of the solid-liquid transition) fell in the range of 166.7 to 168.2 °C. In addition, the IC50 in series [1] is 6.3 µM. The IC50 on p38 MAP kinase worked out at 3.29 µM.
For `Nc1c(C(=O)c2cccc(OCCCN3CCCCC3)c2)cnn1-c1ccc(F)cc1` [compound 21], the values for the IC50 (in series [1]; at p38 MAP kinase) were 0.61 µM and 2.18 µM, respectively.
In the case of `Nc1c(C(=O)c2cccc(C=CCN3CCOCC3)c2)cnn1-c1ccc(F)cc1` [compound 4], the melting point is 161.6 to 162.8 °C. For the same compound, the IC50 in series [1] came to 1.26 µM. Further, the IC50 on p38 MAP kinase was found to be 6.18 µM.
As to `CN1CCN(CC#Cc2cccc(C(=O)c3cnn(-c4ccc(F)cc4)c3N)c2)CC1.Cl.Cl` [compound 8, 5-amino-1-(4-fluorophenyl)-4-{3-[3-(4-methylpiperazin-1-yl)prop-1-ynyl]benzoyl}pyrazole.2HCl], the “% Inhibition (TNF-α content in test group relative to vehicle treated group)” value with TNF-α Production In Rats worked out at 86%.
For the compound `CN1CCN(C(=O)COc2cccc(C(=O)c3cnn(-c4ccc(F)cc4)c3N)c2)CC1` [compound 38], the IC50 in series [1] stood at 0.69 µM; at p38 MAP kinase, 6.31 µM.
`Nc1c(C(=O)c2cccc(N3CCC(Cc4ccccc4)CC3)c2)cnn1-c1ccc(F)cc1` [compound 33] had a melting point of 156.2 to 160.9 °C. Moreover, in series [1], the IC50 is 0.14 µM. In addition, at p38 MAP kinase, the IC50 came to 1.12 µM.
With `Nc1c(C(=O)c2cccc(OCCN3CCOCC3)c2)cnn1-c1ccc(F)cc1` [compound 13, 5-amino-1-(4-fluorophenyl)-4-[3-(2-morpholin-4-ylethoxy)benzoyl]pyrazole], the IC50 in series [1] came to 0.77 µM.
Take `Nc1c(C(=O)c2ccc(CCCO)cc2)cnn1-c1ccccc1` [compound 1]: the melting point fell in the range of 148 to 152.5 °C. The IC50 in series [1] was found to be 1.77 µM. Further, the IC50 on p38 MAP kinase stood at 1.81 µM.
As to `Nc1cccc(C(=O)c2cnn(-c3ccc(F)cc3)c2N)c1` [compound 43, 5-amino-4-(3-aminobenzoyl)-1-(4-fluorophenyl)pyrazole], the melting point fell in the range of 165.2 to 165.8 °C. Further, in series [1], the IC50 was 0.17 µM. In addition, the IC50 on p38 MAP kinase came out at 6.52 µM.
